Laboratory results published in paper PMC9094411 (2022).

Test system: E. coli SugE guanidine-II riboswitch aptamer, 47mer FRET construct (C1G) (RNA, riboswitch, 5-aminoallyl-uridine at 3 (dye conjugated)) GUUUGCAGGACGACCUGCAAACGCCUCUUUUCACCGGGGACGGCCCC
Assay: smFRET histograms, immobilised RNA (kissing-loop state population)
Details: Mg2+ 1 mM, 50 mM Tris/Cl pH 7.4, 22 °C, imaging buffer, 30 nM-30 mM ligand

binding (K-state 66% at 30 mM) | binding (K-state 66% at 30 mM buffer, highest tested 30 mM, no K-state shift, RNA destabilised (U-state 35%)) | Compound
yes |  | N=C(N)N
 | no | NC(N)=O
